The target in test [1] is T1, HCV NS5B (Hepatitis C virus genotype 1b, UniProt Q9WMX2).
T1 construct: fusion protein, of which the carboxyl terminal 21 amino acids were removed to enhance its solubility; His tag (GSHHHHHH); made in house; host or cells: E. coli
Kind of test: Inhibition of viral RNA-dependent RNA polymerase (RdRp), in vitro biochemical assay. To be noted: HCV NS5B RdRp, BB7; class symbols A-D; read-out: HCV pol-BB7 IC50. More on the design: species or system HCV genotype 1b virus (BB7). The procedure, abridged:
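Purified recombinant NS5B from a genotype 1b consensus (BB7), His-tagged, E. coli-expressed, with the C-terminal 21 residues deleted. Inhibition of RdRp activity in vitro was measured, and IC50 is the concentration giving 50% inhibition.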

Test [2] has as its system HCV replicon (BB7 sequence) in Huh-7-Clone A cells. Kind of test: HCV replicon assay: ELISA of NS5A protein in replicon-containing cells (Inhibition of Viral RNA Replication). Format: cell-based. To be noted: Hepatitis C virus. Summed up: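 Huh-7-Clone A cells carrying subgenomic BB7 HCV replicon (G418-selectable) incubated 72 h with compound. NS5A protein quantified by cell ELISA: glutaraldehyde fixation, anti-NS5A monoclonal plus HRP secondary, TMB read at OD 650 nm. EC50 derived from 8-point serial dilution dose curve.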

The mark [3] stands for this setting: HCV replicon assay, ranges of EC50, read-out: Replicon.

Like-named read-outs stand apart in the source and are kept apart here.

As usually defined, the IC50 is the concentration that inhibits the measured activity by half.

In the case of `CNC(=O)c1c(-c2ccc(F)cc2)oc2cc(N(Cc3c(C)noc3C)S(C)(=O)=O)c(OC(C)C)cc12` [Example 284, 6-[(3,5-Dimethyl-isoxazol-4-ylmethyl)-methanesulfonyl-amino]-2-(4-fluoro-phenyl)-5-isopropoxy-benzofuran-3-carboxylic acid methylamide], the IC50 in test [1] is no more than 500 nM. Moreover, in test [2] (setting [3]), the EC50 was less than 10 µM.
For the compound `CNC(=O)c1c(-c2ccc(F)cc2)oc2cc(N(Cc3nccs3)S(C)(=O)=O)c(OC(C)C)cc12` [Example 285, 2-(4-Fluoro-phenyl)-5-isopropoxy-6-(methanesulfonyl-thiazol-2-ylmethyl-amino)-benzofuran-3-carboxylic acid methylamide], the IC50 in test [1] is no more than 500 nM. Besides, the EC50 in test [2] (setting [3]) is less than 1 µM.
In the same order, the values of `CCOC(=O)c1csc(CN(c2cc3oc(-c4ccc(F)cc4)c(C(=O)NC)c3cc2OC(C)C)S(C)(=O)=O)n1` [Example 286, 2-({[2-(4-Fluoro-phenyl)-5-isopropoxy-3-methylcarbamoyl-benzofuran-6-yl]-methanesulfonylamino}-methyl)-thiazole-4-carboxylic acid ethyl ester] are no more than 500 nM and less than 10 µM.
The matching figures for `CNC(=O)c1c(-c2ccc(F)cc2)oc2cc(N(C)S(C)(=O)=O)c(O)cc12` [Example 287, 2-(4-Fluoro-phenyl)-5-hydroxy-6-(methanesulfonyl-methyl-amino)-benzofuran-3-carboxylic acid methylamide]: no more than 500 nM and less than 10 µM.
In the same order, the values of `C=CCOc1cc2c(C(=O)NC)c(-c3ccc(F)cc3)oc2cc1N(CC=C)S(C)(=O)=O` [Example 288, 6-(Allyl-methanesulfonyl-amino)-5-allyloxy-2-(4-fluoro-phenyl)-benzofuran-3-carboxylic acid methylamide] are no more than 500 nM and less than 1 µM.
For `CNC(=O)c1c(-c2ccc(F)cc2)oc2cc(N(C(C)=O)S(C)(=O)=O)c(OC)cc12` [Example 289, 6-(Acetyl-methanesulfonyl-amino)-2-(4-fluoro-phenyl)-5-methoxy-benzofuran-3-carboxylic acid methylamide], the concentration for half-maximal inhibition (IC50) in test [1] is no more than 500 nM. Moreover, the EC50 in test [2] (setting [3]) is less than 1 µM.
The matching figures for `CNC(=O)c1c(-c2ccc(F)cc2)oc2cc(N(Cc3c(C)noc3C)S(C)(=O)=O)c(OC)cc12` [Example 290, 6-[(3,5-Dimethyl-isoxazol-4-ylmethyl)-methanesulfonyl-amino]-2-(4-fluoro-phenyl)-5-methoxy-benzofuran-3-carboxylic acid methylamide]: no more than 500 nM and less than 10 µM.
In the same order, the values of `CNC(=O)c1c(-c2ccc(F)cc2)oc2cc(N(Cc3cscn3)S(C)(=O)=O)c(OC)cc12` [Example 291, 2-(4-Fluoro-phenyl)-6-(methanesulfonyl-thiazol-4-ylmethyl-amino)-5-methoxy-benzofuran-3-carboxylic acid methylamide] are no more than 500 nM and less than 1 µM.
The matching figures for `CNC(=O)c1c(-c2ccc(F)cc2)oc2cc(N(Cc3nc(C(=O)O)cs3)S(C)(=O)=O)c(OC(C)C)cc12` [Example 292, 2-({[2-(4-Fluoro-phenyl)-5-isopropoxy-3-methylcarbamoyl-benzofuran-6-yl]-methanesulfonyl-amino}-methyl)-thiazole-4-carboxylic acid]: no more than 500 nM and greater than 100 µM.
With `CNC(=O)c1c(-c2ccc(F)cc2)oc2cc(N3CCOCC3)c(OCc3ccc4c(c3)C(=O)OC(C)(C)O4)cc12` [Example 293], the IC50 in test [1] is 500 to 5000 nM. Moreover, the EC50 in test [2] (read-out: Replicon (μM)) was less than 10 µM.
On to `CCN(c1cc2oc(-c3ccc(F)cc3)c(C(=O)NC)c2cc1OCc1ccc2c(c1)C(=O)OC(C)(C)O2)S(C)(=O)=O` [Example 294], for which the IC50 in test [1] is no more than 500 nM. The EC50 in test [2] (read-out: Replicon (μM)) is less than 1 µM.
`CCN(c1cc2oc(-c3ccc(F)cc3)c(C(=O)NC)c2cc1O)S(C)(=O)=O` [Example 297, 6-(Ethyl-methanesulfonyl-amino)-2-(4-fluoro-phenyl)-5-hydroxy-benzofuran-3-carboxylic acid methylamide]: the half-inhibitory concentration (IC50) in test [1] was no more than 500 nM. Moreover, the EC50 in test [2] (setting [3]) is less than 10 µM.
In the same order, the values of `CNC(=O)c1c(-c2ccc(F)cc2)oc2cc(N(C)S(C)(=O)=O)c(OC(F)F)cc12` [Example 298, 5-Difluoromethoxy-2-(4-fluoro-phenyl)-6-(methanesulfonyl-methyl-amino)-benzofuran-3-carboxylic acid methylamide] are no more than 500 nM and less than 1 µM.
The matching figures for `CNC(=O)c1c(-c2ccc(F)cc2)oc2cc(N(Cc3ccncc3)S(C)(=O)=O)c(OC)cc12` [Example 299, 2-(4-Fluoro-phenyl)-6-(methanesulfonyl-pyridin-4-ylmethyl-amino)-5-methoxy-benzofuran-3-carboxylic acid methylamide]: no more than 500 nM and less than 1 µM.
Consider `CNC(=O)c1c(-c2ccc(F)cc2)oc2cc(C(C)(C)O)c(C)cc12` [Example 300, 2-(4-Fluoro-phenyl)-6-(1-hydroxy-1-methyl-ethyl)-5-methyl-benzofuran-3-carboxylic acid methylamide], for which the IC50 in test [1] is no more than 500 nM. In addition, the EC50 in test [2] (setting [3]) was less than 10 µM.
The matching figures for `CNC(=O)c1c(-c2ccc(F)cc2)oc2cc(C(C)=O)c(C)cc12` [Example 301, 6-Acetyl-2-(4-fluoro-phenyl)-5-methyl-benzofuran-3-carboxylic acid methylamide]: no more than 500 nM and less than 10 µM.
For `CNC(=O)c1c(-c2ccc(F)cc2)oc2cc(N(C)S(C)(=O)=O)c(OCc3ccc4c(c3)OC(C)(C)OC4=O)cc12` [Example 302, 5-(2,2-Dimethyl-4-oxo-4H-benzo[1,3]dioxin-7-ylmethoxy)-2-(4-fluoro-phenyl)-6-(methanesulfonyl-methyl-amino)-benzofuran-3-carboxylic acid methylamide], the concentration for half-maximal inhibition (IC50) in test [1] is no more than 500 nM. In addition, the EC50 in test [2] (setting [3]) is less than 1 µM.
In the same order, the values of `CNC(=O)c1c(-c2ccc(F)cc2)oc2cc(C(C)N(C)S(C)(=O)=O)c(OC)cc12` (stereo not drawn) [Example 303, 2-(4-Fluoro-phenyl)-6-[1-(methanesulfonyl-methyl-amino)-ethyl]-5-methoxy-benzofuran-3-carboxylic acid methylamide] are no more than 500 nM and less than 1 µM.
As to `CNC(=O)c1c(-c2ccc(F)cc2)oc2cc(C(C)NC)c(OC)cc12` (stereo not drawn) [Example 304, 2-(4-Fluoro-phenyl)-5-methoxy-6-(1-methylamino-ethyl)-benzofuran-3-carboxylic acid methylamide], in test [1], the IC50 is 500 to 5000 nM. Further, the EC50 in test [2] (setting [3]) was greater than 30 µM.
The matching figures for `CNC(=O)c1c(-c2ccc(F)cc2)oc2cc(N(C)S(C)(=O)=O)c(OCc3ccc(C(=O)OC)cc3)cc12` [Example 305, 4-[2-(4-Fluoro-phenyl)-6-(methanesulfonyl-methyl-amino)-3-methylcarbamoyl-benzofuran-5-yloxymethyl]-benzoic acid methyl ester]: no more than 500 nM and less than 1 µM.
With `CNC(=O)c1c(-c2ccc(F)cc2)oc2cc(N(C)S(C)(=O)=O)c(OCc3cccc(C(=O)OC)c3)cc12` [Example 306], the concentration for half-maximal inhibition (IC50) in test [1] was no more than 500 nM. The EC50 in test [2] (read-out: Replicon (μM)) was less than 1 µM.

The values are drawn from patent publication US7265152B2 (ViroPharma Incorporated, priority 2002, dated 2007).
